In US7264795B2, “Sunscreen composition” (Merck Patent Gesellschaft, priority 2001, dated 2007):

How the values were obtained:
[1] = Differential stripping of the stratum corneum (tape stripping with UV/VIS spectroscopy); format: in vitro ADME, porcine
Description: The goal of this study was to determine and compare the distribution of OMC in the stratum corneum of two different formulations as applied to porcine skin, which serves as a model for in vivo human skin applications. The method used has been established (Weigmann H-J, Lademann J, Meffert H, Schaefer H, Sterry W: Determination of the horny layer profile by tape stripping in combination with optical spectroscopy in the visible range as a prerequisite to quantify percutaneous absorption. Skin Pharmacol Appl Skin Physiol, 12:34-45 (1999)) and is described below. This method is based on conventional stripping procedures combined with UV/VIS spectroscopy to determine both the substance, to be analyzed, and, in parallel, the weight of the comeocytes. This since it is possible to obtain the complete stratum corneum with this stripping procedure, the strips thus can be shown as a horny layer profile.
Porcine ear skin is used due to its availability and well-known similarity to human skin. […] Two formulations are applied to an area of 20 cm^2 with a concentration of 2 mg/cm^2 (200 μg OMC/cm^2) and exposed for one hour. […] Afterwards, topical application and stripping was carried out using a standard procedure (The emulsion is applied with a syringe and evenly distributed with a gloved finger. After pressure application, all strips were removed from the marked area). The stripping is repeated as long as the spectral photometer has a transmission of 99.8% compared to the original tape strip as reference.
After evaluation of the amount of stratum corneum photometrically at 900 nm, the strips are extracted with methanol, centrifuged and decanted. Amounts of OMC concentrations are calculated from the ratio peak area of the OMC to an internal OMC calibration curve. The detection limit for OMC is found to be 1 μg/ml±5%. The experiments are carried out in duplicate.
Non-particulate substances lying in the furrows are distributed evenly due to the applied pressure—this releases the substances from the furrows, while particulate substances often remain. […]

[2] = Comparative release through an inert lipophilic membrane (Franz diffusion cell); format: in vitro ADME; conditions: after 6 hours, finite dose 5 mg/cm^2 (572 μg OMC/cell)
Description: The goal of this study is to determine and compare the release of OMC from two different formulations through an inert lipophilic membrane which serves as a model (Jiang R, Benson H A E, Cross S E, Roberts M S. In vitro human epidermal and polyethylene membrane penetration and retention of sunscreen benzophenone-3 from a range of solvents. Pharm. Res., 15: 1863-1886 (1998)) for in vitro human skin applications. (Jiang R, Robert M S, Prankerd R J, Benson H A E. Percutaneous absorption of sunscreen agents from liquid paraffin: self-association of octyl salicylate and effects on skin flux. J. Pharm. Sci., 86: 791-796 (1997); Shah et al: In vitro release from corticosteorid ointments. J. Pham. Sci., 84(9): 1139-1140 (1995);).
Two formulations are prepared, one with free, the other with encapsulated OMC. Both contained the same amount of OMC (see Table 3).
Tuffryn® membranes (200 nm in pore size) are soaked for 30 minutes in isopropyl myristate and blotted dry with tissue paper prior to use. […]
Analysis is by HPLC, OMC concentrations are calculated from the ratio peak area of the OMC to an internal standard and calibration curve.

[3] = Epidermal uptake of UV filters by human epidermis (Franz diffusion cell); format: in vitro ADME
Protocol: The goal of this study is to determine and compare both the release of OMC from two different formulations through human epidermal membranes and the epidermal uptake of OMC.
Human female abdominal skin is used to heat-separate the epidermis from the dermis. The epidermal membranes thus obtained are mounted onto a Franz diffusion cell. The receptor cell contains PBS and 4% (w/v) bovine serum albumin, resulting in a pH of 7.4. The temperature is set to 35° C. Each of the two formulations is applied to 3 cells, non-occluded, with a finite dose concentration of 5 mg/cm^2 (572 μg OMC/cell). […] The duration of examination is 6 hours, 200 μl of the receptor phase is removed at specific points of time and analyzed by HPLC. To analyze the epidermal uptake, the remaining formulation is wiped from the surface of the epidermis with alcohol-soaked tissue and the skin is stripped once with adhesive tape, which is then discarded. A circular punch is used to remove a constant area of epidermis exposed to the formulations. After extraction, OMC concentrations are analyzed by HPLC.

CCCCC(CC)COC(=O)C=Cc1ccc(OC)cc1 (centres unmarked) [Free OMC, octyl methoxycinnamate]
Share of the stratum corneum (SC) down to which OMC is found ([1]; 10% OMC formulation, 2 mg/cm^2, exposed one hour, 100% SC = 20 μm): 75 % of the SC
Maximum depth in the SC where OMC can be detected ([1]; 10% OMC formulation, 2 mg/cm^2, exposed one hour, horny layer about 20 μm): ≤ 15 μm
OMC amount in the deepest strip ([1]; strip at 15 μm depth (75% of the SC)): 1 μg/cm^2
OMC reaching the receptor cell as share of the applied amount [2]: 12.5%
OMC reaching the receptor cell ([2]; 8.8% OMC, n=3): 72 µg
UV filter penetrating the epidermis into the receptor phase ([3]; 6 hours, finite dose 5 mg/cm^2 (572 μg OMC/cell), 8.8% OMC): no significant amount of UV filter penetrating the epidermis
Epidermal uptake of OMC per mg of epidermal tissue ([3]; after 6 hours of exposure, finite dose 5 mg/cm^2, 8.8% OMC): 3.3 μg/mg tissue
Epidermal absorption compared to Eusolex UV-Pearls ([3]; heat-separated human epidermis, 6 hours): 3 fold
